Assay results: PubChem BioAssay AID330 (DTP/NCI, 2004)
Values joined by “and” are separate entries in the source; they are usually repeats but may differ in a detail not shown here. Equal values may be shown once. Inconclusive results and toxic doses are left out. The calls were made as follows: active = survival T/C of 150% or more; inactive = T/C below 125% in these data.

System: P388 leukemia ip, CD2F1 mice, survival T/C
Experiment: NCI In Vivo Anticancer Drug Screen. Data for tumor model P388 Leukemia (intraperitoneal) in CD2F1 (CDF1) mice
Details: endpoint: median survival time, higher = longer survival
Summary of the method: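 Mice carrying the transplanted tumor received test compound or vehicle. Survival was recorded in each group, and the value is the treated-group measurement divided by that of the vehicle-treated control group.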

[1] = dose: 50.0 mg/kg/injection, schedule: Q01DX009 (ip), vehicle: saline
[2] = dose: 100.0 mg/kg/injection, schedule: Q01DX009 (ip), vehicle: saline
[3] = dose: 100.0 mg/kg/injection, schedule: Q04DX003 (ip), vehicle: Klucel (hydroxypropylcellulose) (HPC)
[4] = dose: 200.0 mg/kg/injection, schedule: Q04DX003 (ip), vehicle: Klucel (hydroxypropylcellulose) (HPC)
[5] = dose: 400.0 mg/kg/injection, schedule: Q04DX003 (ip), vehicle: Klucel (hydroxypropylcellulose) (HPC)
[6] = dose: 120.0 mg/kg/injection, schedule: Q01DX005 (ip), vehicle: saline with Tween-80
[7] = dose: 240.0 mg/kg/injection, schedule: Q01DX005 (ip), vehicle: saline with Tween-80

Measured: T/C

NNC(=O)CCCO
inactive: dose: 50.0 mg/kg/injection, schedule: Q04DX003 (ip), vehicle: saline 105 % of control | dose: 100.0 mg/kg/injection, schedule: Q04DX003 (ip), vehicle: saline 98 % of control | dose: 200.0 mg/kg/injection, schedule: Q04DX003 (ip), vehicle: saline 103 % of control | dose: 400.0 mg/kg/injection, schedule: Q04DX003 (ip), vehicle: saline 105 % of control

NCC1CC2c3ccccc3C1c1ccccc12 (centres undefined)
inactive: dose: 12.5 mg/kg/injection, schedule: Q01DX005 (ip), vehicle: Klucel (hydroxypropylcellulose) (HPC) 103 % of control | dose: 25.0 mg/kg/injection, schedule: Q01DX005 (ip), vehicle: Klucel (hydroxypropylcellulose) (HPC) 97 % of control | dose: 50.0 mg/kg/injection, schedule: Q01DX005 (ip), vehicle: Klucel (hydroxypropylcellulose) (HPC) 99 % of control and 95 % of control | dose: 100.0 mg/kg/injection, schedule: Q01DX005 (ip), vehicle: Klucel (hydroxypropylcellulose) (HPC) 106 % of control

S=c1nc(-c2nc(=S)[nH]c3c2CCCCCCCCCC3)c2c([nH]1)CCCCCCCCCC2
inactive: dose: 60.0 mg/kg/injection, schedule: Q01DX005 (ip), vehicle: Klucel (hydroxypropylcellulose) (HPC) 99 % of control | dose: 120.0 mg/kg/injection, schedule: Q01DX005 (ip), vehicle: Klucel (hydroxypropylcellulose) (HPC) 92 % of control | dose: 240.0 mg/kg/injection, schedule: Q01DX005 (ip), vehicle: Klucel (hydroxypropylcellulose) (HPC) 93 % of control

CC1(C)OCC(CO)O1 (centres undefined)
inactive: [1] 106 % of control | [2] 114 % of control | dose: 200.0 mg/kg/injection, schedule: Q01DX009 (ip), vehicle: saline 111 % of control

Cc1ccc2ncccc2c1N (tested in a mixture with another compound)
inactive: dose: 6.25 mg/kg/injection, schedule: Q01DX009 (ip), vehicle: gum acacia 106 % of control | dose: 12.5 mg/kg/injection, schedule: Q01DX009 (ip), vehicle: gum acacia 113 % of control | dose: 25.0 mg/kg/injection, schedule: Q01DX009 (ip), vehicle: gum acacia 107 % of control | dose: 50.0 mg/kg/injection, schedule: Q01DX009 (ip), vehicle: gum acacia 108 % of control

Cc1ccc(S(=O)(=O)N(C)C)cc1NC1=NCCO1
inactive: dose: 50.0 mg/kg/injection, schedule: Q01DX001 (ip), vehicle: saline with Tween-80 95 % of control | dose: 100.0 mg/kg/injection, schedule: Q01DX001 (ip), vehicle: saline with Tween-80 95 % of control | dose: 200.0 mg/kg/injection, schedule: Q01DX001 (ip), vehicle: saline with Tween-80 100 % of control

O=C(O)c1c2cc(Br)ccc2nc2[nH]c(=O)[nH]c(=O)c12
inactive: dose: 50.0 mg/kg/injection, schedule: Q01DX005 (ip), vehicle: Klucel + Tween-80 104 % of control | dose: 100.0 mg/kg/injection, schedule: Q01DX005 (ip), vehicle: Klucel + Tween-80 112 % of control | dose: 200.0 mg/kg/injection, schedule: Q01DX005 (ip), vehicle: Klucel + Tween-80 111 % of control

COc1ccc(Cc2cc3c(cc2OC)OCO3)cc1
inactive: dose: 2.5 mg/kg/injection, schedule: Q01DX009 (ip), vehicle: saline with Tween-80 99 % of control | dose: 5.0 mg/kg/injection, schedule: Q01DX009 (ip), vehicle: saline with Tween-80 99 % of control | dose: 10.0 mg/kg/injection, schedule: Q01DX009 (ip), vehicle: saline with Tween-80 99 % of control | dose: 15.0 mg/kg/injection, schedule: Q01DX005 (ip), vehicle: saline with Tween-80 102 % of control | dose: 31.0 mg/kg/injection, schedule: Q01DX005 (ip), vehicle: saline with Tween-80 102 % of control | dose: 62.5 mg/kg/injection, schedule: Q01DX005 (ip), vehicle: saline with Tween-80 109 % of control | dose: 125.0 mg/kg/injection, schedule: Q01DX005 (ip), vehicle: saline with Tween-80 103 % of control | dose: 250.0 mg/kg/injection, schedule: Q01DX005 (ip), vehicle: saline with Tween-80 103 % of control

CCCCCC1NC(C)(C)CO1 (centres undefined)
inactive: dose: 50.0 mg/kg/injection, schedule: Q01DX005 (ip), vehicle: saline 118 % of control | dose: 100.0 mg/kg/injection, schedule: Q01DX005 (ip), vehicle: saline 109 % of control | dose: 200.0 mg/kg/injection, schedule: Q01DX005 (ip), vehicle: saline 100 % of control

CCn1c2ccc(C(=O)CCCN(C)C)cc2c2cc(C(=O)CCCN(C)C)ccc21
inactive: dose: 12.5 mg/kg/injection, schedule: Q01DX009 (ip), vehicle: saline 118 % of control and 122 % of control | dose: 25.0 mg/kg/injection, schedule: Q01DX009 (ip), vehicle: saline 108 % of control and 116 % of control

O=C(Cc1ccccc1)CC(CC(=O)Cc1ccccc1)c1ccccc1
inactive: dose: 50.0 mg/kg/injection, schedule: Q01DX005 (ip), vehicle: saline with Tween-80 94 % of control | dose: 100.0 mg/kg/injection, schedule: Q01DX005 (ip), vehicle: saline with Tween-80 89 % of control | dose: 200.0 mg/kg/injection, schedule: Q01DX005 (ip), vehicle: saline with Tween-80 103 % of control

CC1CCCCN1c1cc2nc[nH]c(=O)c2cc1[N+](=O)[O-] (centres undefined)
inactive: [3] 108 % of control | [4] 99 % of control | [5] 100 % of control

Cc1ccc(C(=O)Cc2ccc(C#N)cc2)cc1
inactive: dose: 25.0 mg/kg/injection, schedule: Q01DX009 (ip), vehicle: saline with Tween-80 99 % of control | dose: 50.0 mg/kg/injection, schedule: Q01DX009 (ip), vehicle: saline with Tween-80 118 % of control | dose: 100.0 mg/kg/injection, schedule: Q01DX009 (ip), vehicle: saline with Tween-80 108 % of control | dose: 200.0 mg/kg/injection, schedule: Q01DX009 (ip), vehicle: saline with Tween-80 99 % of control

O=C(C=C(C(F)(F)F)C(F)(F)F)c1ccco1
inactive: dose: 12.5 mg/kg/injection, schedule: Q04DX003 (ip), vehicle: saline with Tween-80 100 % of control | dose: 25.0 mg/kg/injection, schedule: Q04DX003 (ip), vehicle: saline with Tween-80 109 % of control | dose: 50.0 mg/kg/injection, schedule: Q04DX003 (ip), vehicle: saline with Tween-80 95 % of control

O=C(c1ccccc1)C(CN1CCOCC1)CN1CCOCC1
inactive: [1] 119 % of control | [2] 116 % of control

O=S(=O)(OCC(COS(=O)(=O)c1ccccc1)(OS(=O)(=O)c1ccccc1)OS(=O)(=O)c1ccccc1)c1ccccc1
inactive: dose: 100.0 mg/kg/injection, schedule: Q01DX009 (ip), vehicle: Klucel (hydroxypropylcellulose) (HPC) 105 % of control | dose: 200.0 mg/kg/injection, schedule: Q01DX009 (ip), vehicle: Klucel (hydroxypropylcellulose) (HPC) 104 % of control | dose: 400.0 mg/kg/injection, schedule: Q01DX009 (ip), vehicle: Klucel (hydroxypropylcellulose) (HPC) 100 % of control

C=C1CC(OC(C)=O)/C=C(/C)CCC(C(C)(C)O)CC1O (centres undefined)
inactive: dose: 14.5 mg/kg/injection, schedule: Q01DX005 (ip), vehicle: Klucel + Tween-80 96 % of control | dose: 29.0 mg/kg/injection, schedule: Q01DX005 (ip), vehicle: Klucel + Tween-80 96 % of control | dose: 58.0 mg/kg/injection, schedule: Q01DX005 (ip), vehicle: Klucel + Tween-80 97 % of control | dose: 116.0 mg/kg/injection, schedule: Q01DX005 (ip), vehicle: Klucel + Tween-80 100 % of control

CC(C)(C)c1cc(C(=O)O)c2c(c1)C(=O)OCS2
inactive: [3] 99 % of control | [4] 91 % of control | [5] 97 % of control

CSc1nc2c(nc(N)n2C2OC(COC(C)=O)C(OC(C)=O)C(OC(C)=O)C2OC(C)=O)c(=O)n1C (centres undefined)
inactive: [6] 92 % of control | [7] 96 % of control

CC(=O)Cc1cc(-c2cc(CC(C)=O)[nH]n2)n[nH]1
inactive: dose: 60.0 mg/kg/injection, schedule: Q01DX005 (ip), vehicle: saline 98 % of control | dose: 120.0 mg/kg/injection, schedule: Q01DX005 (ip), vehicle: saline 95 % of control | dose: 240.0 mg/kg/injection, schedule: Q01DX005 (ip), vehicle: saline 102 % of control

COCC12CN(C)C3C4C(OC)C1C3(C(OC)CC2O)C1CC2(O)C(OC)C(O)C4(OC(C)=O)C1C2OC(=O)c1ccccc1 (centres undefined)
inactive: dose: 0.09 mg/kg/injection, schedule: Q01DX005 (ip), vehicle: Klucel (hydroxypropylcellulose) (HPC) 100 % of control | dose: 12.0 micrograms/kg/injection, schedule: Q01DX005 (ip), vehicle: Klucel (hydroxypropylcellulose) (HPC) 91 % of control | dose: 24.0 micrograms/kg/injection, schedule: Q01DX005 (ip), vehicle: Klucel (hydroxypropylcellulose) (HPC) 98 % of control and 101 % of control | dose: 48.0 micrograms/kg/injection, schedule: Q01DX005 (ip), vehicle: Klucel (hydroxypropylcellulose) (HPC) 100 % of control and 101 % of control

COC(=O)c1nnc(C(=O)OC)c2c1[nH]c1ccccc12
inactive: dose: 60.0 mg/kg/injection, schedule: Q01DX005 (ip), vehicle: saline with Tween-80 96 % of control | [6] 103 % of control | [7] 94 % of control
